From ChEMBL document CHEMBL5370526, “Recent advances in EZH2-based dual inhibitors in the treatment of cancers” (Eur J Med Chem, 2023)
Values belong to the compound of their own block, whether it stands above or below them.

Tests used:
KARPAS-422 [1] = experiment: Growth inhibition of human KARPAS-422 cells assessed as reduction in cell viability measured after 72 hrs by MTT assay; format: functional
KARPAS-422 [2] = experiment: Antitumor activity against human KARPAS-422 cells xenografted in nude mouse assessed as reduction in tumor growth at 100 mg/kg, po administered once daily for 14 consecutive days relative to control; format: functional; conditions: read-out: TGI
HCT-116 = experiment: Cytotoxicity against human HCT-116 cells assessed as reduction in cell viability measured after 72 hrs by MTT assay; format: functional, cell-based; conditions: HCT-116, 72 h
[3] = target: Histone-lysine N-methyltransferase EZH2 (Homo sapiens, UniProt Q15910, Y641F); experiment: Inhibition of N-terminal FLAG-tagged recombinant full-length human EZH2 Y641F mutant in PRC2 complex expressed in baculovirus infected Sf9 cells using H3K27me0 biotin/SAM as substrate preincubated for 10 mins followed by substrate addition measured after 4 hrs by HTRF assay
G-401 = experiment: Growth inhibition of human G-401 cells assessed as reduction in cell viability measured after 72 hrs by MTT assay; format: functional
NCI-N87 = experiment: Growth inhibition of human NCI-N87 cells assessed as reduction in cell viability measured after 72 hrs by MTT assay; format: functional
A549 = experiment: Antiproliferative activity against human A549 cells assessed as reduction in cell viability measured after 48 hrs by MTT assay; format: functional, cell-based; conditions: A549, 48 h
[4] = target: T1, Histone-lysine N-methyltransferase EZH2 (Homo sapiens, UniProt Q15910); experiment: Inhibition of EZH2 (unknown origin) using SAM as substrate preincubated for 10 mins followed by substrate addition and measured after 4 hrs by HTRF assay
[5] = target: T1, Histone-lysine N-methyltransferase EZH2; experiment: Inhibition of wildtype EZH2 (unknown origin)
[6] = target: T1, Histone-lysine N-methyltransferase EZH2; experiment: Inhibition of EZH2 (unknown origin) using plate-coated histone as substrate at 5 uM incubated for 90 mins in presence of 5 uM SAM by AlphaScreen assay
[7] = target: T1, Histone-lysine N-methyltransferase EZH2; experiment: Inhibition of EZH2 methyltransferase activity in human PA-1 cells assessed as reduction in H3K27me3 level measured after 4 days by Western blot analysis; format: cell-based
ASPC1 = experiment: Antiproliferative activity against human ASPC1 cells harboring KRAS G12D mutant assessed as reduction in cell growth measured after 72 hrs by MTT assay; format: functional, cell-based; conditions: ASPC1, 72 h
RS4-11 = experiment: Growth inhibition of human RS4-11 cells assessed as reduction in cell viability measured after 72 hrs by MTT assay; format: functional
MV4-11 = experiment: Growth inhibition of human MV4-11 cells assessed as reduction in cell viability measured after 72 hrs by MTT assay; format: functional
[8] = target: T1, Histone-lysine N-methyltransferase EZH2
Description: Inhibition of human EZH2 using core histone as substrate incubated for 1 hr by fluorescence based assay

[9] = target: T1, Histone-lysine N-methyltransferase EZH2; remark: listed apart in the source
Description: Inhibition of human EZH2 in human MCF-10A cells assessed as reduction in H3K27me3 levels incubated for 72 hrs by Western blot analysis

[10] = Antiproliferative activity against human DLBCL cells assessed as reduction in cell viability measured after 72 hrs by MTT assay; format: functional, cell-based
MCF-10A = experiment: Antiproliferative activity against human MCF-10A cells assessed as cell growth inhibition measured after 72 hrs by MTT assay; format: functional, cell-based

T1 sequence (Q15910 whole entry): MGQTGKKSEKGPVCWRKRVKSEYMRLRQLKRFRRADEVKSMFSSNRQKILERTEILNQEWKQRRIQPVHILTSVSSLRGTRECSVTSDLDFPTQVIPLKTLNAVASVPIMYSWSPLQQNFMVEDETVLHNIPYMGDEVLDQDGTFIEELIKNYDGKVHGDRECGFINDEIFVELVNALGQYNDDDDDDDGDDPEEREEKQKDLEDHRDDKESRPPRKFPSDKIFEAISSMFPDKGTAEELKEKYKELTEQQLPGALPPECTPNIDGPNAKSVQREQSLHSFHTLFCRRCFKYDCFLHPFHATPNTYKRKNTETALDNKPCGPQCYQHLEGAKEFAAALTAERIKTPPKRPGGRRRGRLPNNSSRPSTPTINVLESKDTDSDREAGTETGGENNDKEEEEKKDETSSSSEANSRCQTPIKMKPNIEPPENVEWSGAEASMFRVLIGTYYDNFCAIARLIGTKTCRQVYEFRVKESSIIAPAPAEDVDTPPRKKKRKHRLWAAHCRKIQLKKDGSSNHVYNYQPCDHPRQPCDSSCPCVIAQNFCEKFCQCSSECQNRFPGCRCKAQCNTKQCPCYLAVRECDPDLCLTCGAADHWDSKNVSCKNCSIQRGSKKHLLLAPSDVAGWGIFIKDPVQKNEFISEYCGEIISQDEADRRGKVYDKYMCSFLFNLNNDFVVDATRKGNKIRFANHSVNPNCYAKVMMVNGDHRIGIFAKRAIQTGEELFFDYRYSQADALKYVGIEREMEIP
Histone-lysine N-methyltransferase EZH2 (Homo sapiens, UniProt Q15910, Y641F), sequence (Q15910 whole entry Y641F): as the sequence (Q15910 whole entry) above, with Y641F counted along it

- GI50 (KARPAS-422 [1]): 210 nM
SMILES: CCN1CCN(c2ccc(-c3cc(C(=O)NCc4c(C)cc(C)[nH]c4=O)c(C)c4c3O[C@](C)(CN3CCOCC3)O4)cn2)CC1
- inhibition in vivo at 100 mg/kg (KARPAS-422 [2]): 82%
- IC50 (HCT-116): 0.55 nM

- GI50 (KARPAS-422 [1]): 4 nM
SMILES: Cc1cc(C)c(CNC(=O)c2cc(Br)c3c(c2C)O[C@@](C)([C@H]2CC[C@H](N(C)C)CC2)O3)c(=O)[nH]1
- GI50 (G-401): 17.7 nM
- IC50 (HCT-116): 0.62 nM
- GI50 (NCI-N87): 536 nM

- IC50 [5]: 6.4 nM
SMILES: CCN(c1cc(C(=O)NCc2c(C)cc(C)[nH]c2=O)c2cc(CN3CCCCC3)oc2c1)C1CCOCC1

- GI50 (KARPAS-422 [1]): 4.8 nM
- GI50 (RS4-11): 78.3 nM
- GI50 (MV4-11): 4.8 nM
SMILES: Cc1cc(C)c(CNC(=O)c2cc(Cl)c3c(c2C)O[C@@](C)([C@H]2CC[C@H](N(C)C)CC2)O3)c(=O)[nH]1 [VALEMETOSTAT]
- IC50 (HCT-116): 24 nM

More lines, now with the values behind:

SMILES: CCCc1cc(C)[nH]c(=O)c1CNC(=O)c1cc(-c2ccc(N3CCN(C)CC3)nc2)nc2c1cnn2C(C)C
- IC50 [3]: 80 nM

SMILES: Cc1cc(C)c(CNC(=O)c2c(C)cn(Cc3ccc(C(F)(F)F)cc3)c2C)c(=O)[nH]1
- IC50 (A549): 270000 nM

SMILES: Cc1cc(C)c(CNC(=O)c2cc(-c3ccc(N4CCN(CCNC(=O)C56CC7CC(CC(C7)C5)C6)CC4)nc3)cc3c2cnn3C(C)C)c(=O)[nH]1
- IC50 [4]: 120 nM

SMILES: CCN(c1cc(-c2ccc(CN3CCN(C(=O)CCCCCCCC(=O)N[C@H](C(=O)N4C[C@H](O)C[C@H]4C(=O)NCc4ccc(-c5scnc5C)cc4)C(C)(C)C)CC3)cc2)cc(C(=O)NCc2c(C)cc(C)[nH]c2=O)c1C)C1CCOCC1
- IC50 [6]: 8600 nM

SMILES: CCN(c1cc(-c2ccc(CN3CCN(CCCCCCCOc4cccc5c4C(=O)N(C4CCC(=O)NC4=O)C5=O)CC3)cc2)cc(C(=O)NCc2c(C)cc(C)[nH]c2=O)c1C)C1CCOCC1 (configuration not stated)
- IC50 [7]: < 5 nM

SMILES: CCN(c1cc(-c2ccc(OCCCCCNC(=O)C[C@@H]3N=C(c4ccc(Cl)cc4)c4c(sc(C)c4C)-n4c(C)nnc43)cc2)cc(C(=O)NCc2c(C)cc(C)[nH]c2=O)c1C)C1CCOCC1
- IC50 (ASPC1): 690 nM

SMILES: CCCc1cc(C)[nH]c(=O)c1CNC(=O)c1cc(-c2ccc(N3CCN(C(C)C)CC3)nc2)cc2c1cnn2C(C)C
- IC50 [8]: < 10 nM
- IC50 [9]: < 10 nM
- EC50 [10]: 633 nM

SMILES: COc1cc2nc(N3CCN(C)CC3)nc(NC3CCN(Cc4ccccc4)CC3)c2cc1OC
- IC50 (MCF-10A): > 15000 nM
